In US10759799B2, “Indazole containing macrocycles and therapeutic uses thereof” (Samumed, LLC, priority 2018, dated 2020) one finds IC50, EC50 and inhibition data, which are given here for 14 compounds.

Assay [1] deals with recombinant GSK3β kinase (Homo sapiens (Human), UniProt P49841). Nature of the assay: GSK3β kinase assay (Ser/Thr 09 peptide Z-lyte, FRET). In kind it is biochemical. The settings on record: 46 μM ATP, one hour at room temperature, read-out: EC50 (μM) (IC50 per method). An excerpt:
Representative compounds were screened using the assay procedure for GSK3β kinase activity as described below.
The GSK3β kinase assay is run using the Ser/Thr 09 peptide Z-lyte assay kit according to manufacturer's instructions (Life Technologies—a Division of Thermo-Fisher). This is a non-radioactive assay using fluorescence resonance energy transfer (FRET) between coumarin and fluorescein to detect kinase activity which is represented as ratio of coumarin emission/fluorescein emission.
Briefly, recombinant GSK3β kinase, ATP and Ser/Thr peptide 09 are prepared in 1× Kinase buffer to final concentrations of 0.04 μg/mL, 46 μM, and 4 μM respectively. The mixture is allowed to incubate with the representative compounds for one hour at room temperature. All reactions were performed in duplicate. Unphosphorylated (“0% Control”) and phosphorylated (“100% control”) forms of […] serve as control reactions.
After incubation, diluted Development Buffer is added to the reaction and allowed to further incubate for one hour at room temperature. The plate is read at Ex 400 Em 455 to detect the coumarin signal and Ex 400 Em 520 to measure the signal (EnVision Multilabel Plate Reader, PerkinElmer).
The Emission ratio (Em) is calculated as a ratio of the coumarin (C) emission signal (at 445 nm)/Fluorescein (F) emission signal (at 520 nm). The percent phosphorylation is then calculated using the following formula: [1−((Em ratio×F100%)−C100%)/((C0%−C100%)+(Em ratio×(F100%−F0%)))].
Dose-response curves are generated and inhibitory concentration (IC50) values are calculated using non-linear regression curve fit in the Dotmatics' Studies Software (Bishops Stortford, UK).

The test system of assay [2] is SW480 colon carcinoma cells. Nature of the assay: Cell viability assay (CellTiter-Glo) in SW480 cells. In kind it is cell-based. The settings on record: Homo sapiens; for EC50: 96 h, SW480 cell viability, four days, CellTiter-Glo; for inhibition at 10 µM: SW480, read-out: percent inhibition at 10 μM. On the procedure:
Representative compounds were screened using the assay procedure to assess the effect on cell viability as described below.
SW480 colon carcinoma cells were transduced with a lentiviral vector expressing luciferase with a human Sp5 promoter consisting of a sequence of eight TCF/LEF binding sites. SW480 cells stably expressing the Sp5-Luc reporter gene and a hygromycin resistance gene were selected by treatment with 150 μg/mL of hygromycin for 7 days. These stably transduced SW480 cells were expanded in cell culture and used for all further screening activities.
For the Cell Viability Assays, the cells were plated at 2,000 cells/well in 384-well plates with a DMEM medium containing 1% fetal bovine serum, and 1% Penicillin-Streptomycin and incubated for […] at 37° C. and 5% CO2. Eight replicates of DMSO-treated cells served as controls and cells treated with compound were performed in duplicate.
After incubation, 10 μL of CellTiter-Glo (Promega) was added to each well allowed to incubate for approximately 12 minutes. This reagent “results in cell lysis and generation of a luminescent signal proportional to the amount of ATP present. The amount of ATP is directly proportional to the number of cells present in culture, in agreement with previous reports. The CellTiter-Glo Assay generates a “glow-type” luminescent signal, produced by the luciferase reaction (Promega.com)”.
On the technique in general: Cellular ATP, detected with luciferase, serves as a proxy for viable cell number.

In assay [3] the test system is primary human fibroblasts derived from IPF patients (LL29 cells). The experiment in a line: Inhibition of TGF-β1 induced fibrosis (αSMA staining) in LL29 fibroblasts. The settings on record: Fibroblast; for EC50: 96 h, LL29 cells, TGF-β1 20 ng/mL, 4 days, % αSMA positive cells. Type of assay: cell-based. On the procedure: Representative compounds were screened using primary human fibroblasts (derived from IPF patients) treated with TGF-β1 to determine their ability to inhibit the fibrotic process.
LL29 cells were plated at 1,500 cells/well in 70 μL/well F12 medium supplemented with 1% Fetal Bovine Serum. […] Wells treated with TGF-β1 and containing DMSO were used as positive control, and cells with only DMSO were negative control. […] Following incubation for 4 days, SYTOX green nucleic acid stain (Life Technologies [Thermo Fisher Scientific]) was added to the wells at a final concentration of 1 μM and incubated at room temperature for 30 min.

Assay [4] has as its system IL-6. Nature of the assay: IL-6 inhibition in LPS-stimulated human PBMCs (HTRF). The settings on record: PBMC; for EC50: huPBMCs, LPS 50 ng/mL, 22 hours, IL-6 HTRF; for inhibition at 10 µM: read-out: percent inhibition at 10 μM. In kind it is cell-based. On the procedure: Fresh Normal PB MNC (Catalog # PB001, AllCells, Alameda, Calif.) were shipped overnight at 4° C. and resuspended in Roswell Park Memorial Institute (RPMI) 1640 Medium, with GlutaMAX Supplement (Catalog #61870127, ThermoFisher Scientific, Waltham, Mass.) supplemented with 1% Penicillin-Streptomycin (Catalog #15140163, ThermoFisher Scientific, Waltham, Mass.) and 1% fetal bovine serum (FBS) (Catalog #16140089, ThermoFisher Scientific, Waltham, Mass.) assay media.
Compound Screening: Fresh normal human peripheral blood mononuclear cells (huPBMCs) were resuspended in 1% FBS-RPMI assay media with 1% Penicillin-Streptomycin 1% to a cell concentration of 1×10e6 cells/mL. […] 50 ng/mL of Lipopolysaccharides from Escherichia coli 0111:B4 (Catalog # L5293-2ML, Sigma-Aldrich, St. Louis, Mo.) was added after 2 hours and cells were incubated for another 22 hours at 37° C.-5% CO2. After 22 hour incubation, a mixture of anti-IL6 XL665 and anti-IL-6 Cryptate diluted in reconstitution buffer (Catalog #62IL6PEC, Cisbio Inc., Bedford, Mass.) was added to each well. Following incubation for 3 hours at room temperature, Homogeneous Time-Resolved Fluorescence (HTRF) was measured using the Envision (Perkin Elmer, Shelton, Conn.) at 665 nm and […]. The ratio of fluorescence at 665 nm to 620 nm was used as a readout for IL-6 quantification. All samples were processed in duplicate. Readings were normalized to DMSO treated cells and normalized activities were utilized for EC50 calculations. EC50 was determined using software generated by Dotmatics Limited (Windhill Bishops Stortford Herts, UK) using the Levenberg-Marquardt 4 parameter fitting procedure with finite different gradients.

recombinant GSK3β kinase, sequence (P49841 whole entry): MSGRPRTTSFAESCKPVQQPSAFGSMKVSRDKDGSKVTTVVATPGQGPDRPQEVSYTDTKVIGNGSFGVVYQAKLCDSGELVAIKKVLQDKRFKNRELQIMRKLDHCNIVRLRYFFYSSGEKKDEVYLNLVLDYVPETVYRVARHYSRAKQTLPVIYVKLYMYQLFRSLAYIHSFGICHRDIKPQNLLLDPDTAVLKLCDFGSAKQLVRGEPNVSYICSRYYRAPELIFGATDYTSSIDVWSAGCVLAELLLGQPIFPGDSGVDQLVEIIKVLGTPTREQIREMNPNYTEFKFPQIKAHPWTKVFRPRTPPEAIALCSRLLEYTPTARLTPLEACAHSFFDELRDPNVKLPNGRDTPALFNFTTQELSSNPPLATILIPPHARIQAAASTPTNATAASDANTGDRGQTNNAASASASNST

For the compound `O=C1CCc2cccc(c2)-c2cccc3[nH]c(nc23)-c2n[nH]c3ccc(nc23)-c2cncc(c2)N1` [Compound 7, (Z)-2^1H,3^1H-8-Aza-2(5,3)-pyrazolo[4,3-b]pyridina-3 (2,4)-benzo[d]imidazola-1(3,5)-pyridina-4(1,3)-benzenacyclooctaphan-7-one], in assay [1], the IC50 was over 10 µM. Moreover, the EC50 in assay [2] was 455 nM; in assay [3] it was 560 nM; in assay [4] it was over 10 µM. Further, the inhibition at 10 µM in assay [4] came out at 11.6%.

As to `O=C1CCc2cccc(c2)-c2cccc3[nH]c(nc23)-c2n[nH]c3cnc(cc23)-c2cncc(c2)N1` [Compound 6, (Z)-2^1H,3^1H-8-Aza-2(5,3)-pyrazolo[3,4-c]pyridina-3(2,4)-benzo[d]imidazola-1(3,5)-pyridina-4(1,3)-benzenacyclooctaphan-7-one], the IC50 in assay [1] is 0.004 µM. Also, the values for the EC50 in assay [2], in assay [3] and in assay [4] were 142 nM, 29 nM and over 10 µM, respectively. In addition, the inhibition at 10 µM in assay [4] turned out to be 9.5%.

With `Cn1ncc2c1CNCc1cccc(c1)-c1cccc3[nH]c(nc13)-c1n[nH]c3ccc-2cc13` [Compound 15, (Z)-Methyl-1^1H,2^1H,3^1H-6-aza-2(5,3),3 (2,4)-diindazola-1 (4,5)-pyrazola-4(1,3)-benzenacycloheptaphane], the IC50 in assay [1] was found to be 0.01 µM. In addition, the concentration for a half-maximal effect (EC50) in assay [2] was found to be 118 nM; in assay [3], 87 nM; in assay [4], 0.585 µM.

`O=C1CCc2cccc(c2)-c2nccc3[nH]c(nc23)-c2n[nH]c3ccc(cc23)-c2cncc(c2)N1` [Compound 2, (Z)-2^1H,3^1H-5-Aza-2(4,2)-imidazo[4,5-c]pyridina-3 (3,5)-indazola-4(3,5)-pyridina-1(1,3)-benzenacyclooctaphan-6-one]: the IC50 in assay [1] was determined as 0.001 µM. The EC50 in assay [2] was found to be 80 nM; in assay [3], 224 nM; in assay [4] it was 3.82 µM.

Consider `CN1Cc2cccc(c2)-c2cccc3[nH]c(nc23)-c2n[nH]c3ccc(cc23)-c2cnn(C)c2C1` [Compound 29], for which, in assay [1], the IC50 was 0.015 µM. For the same compound, the results for the EC50 in assay [2], in assay [3] and in assay [4] were 170 nM, 77 nM and 0.241 µM, respectively.

Regarding `O=C1CCc2cccc(c2)-c2cccc3[nH]c(nc23)-c2n[nH]c3ccc(cc23)-c2cncc(c2)N1` [Compound 1], the IC50 in assay [1] amounted to 0.007 µM. Further, the EC50 in assay [2] was found to be 94 nM; in assay [3], 24 nM; in assay [4], 0.381 µM.

As to `c1cc2cc(c1)-c1cccc3[nH]c(nc13)-c1n[nH]c3ccc(cc13)-c1cncc(c1)OCCC2` [Compound 57], the IC50 in assay [1] turned out to be 1.87 µM. The EC50 is 670 nM in assay [2], 637 nM in assay [3] and 3.01 µM in assay [4].

For `c1cc2cc(c1)-c1cccc3[nH]c(nc13)-c1n[nH]c3ccc(cc13)-c1cncc(c1)CNC2` [Compound 10, (Z)-2^1H,3^1H-6-Aza-2(5,3),3(2,4)-diindazola-1(3,5)-pyridina-4(1,3)-benzenacycloheptaphane], the IC50 in assay [1] is 0.004 µM. Moreover, the EC50 in assay [2] was determined as 26 nM; in assay [3], 9980 nM; in assay [4] it was 0.135 µM.

In the case of `O=C1CCc2cccc(c2)-c2cccc3[nH]c(nc23)-c2n[nH]c3ncc(cc23)-c2cncc(c2)N1` [Compound 5, (Z)-2^1H,3^1H-8-Aza-2(5,3)-pyrazolo[3,4-b]pyridina-3(2,4)-benzo[d]imidazola-1(3,5)-pyridina-4(1,3)-benzenacyclooctaphan-7-one], in assay [1], the IC50 is 0.048 µM. For the same compound, the EC50 in assay [2] was 407 nM; in assay [3] it was 78 nM; in assay [4] it was over 10 µM. In assay [4], the inhibition at 10 µM is 9.2%.

Turning to `O=C1COc2cccc(c2)-c2cncc3[nH]c(nc23)-c2n[nH]c3ccc(cc23)-c2cncc(c2)N1` [Compound 38, (Z)-2^3H,3^1H-8-Oxa-5-aza-2(7,2)-imidazo[4,5-c]pyridina-3(3,5)-indazola-4(3,5)-pyridina-1(1,3)-benzenacyclooctaphan-6-one], the half-maximal inhibitory concentration (IC50) in assay [1] was 0.001 µM. Moreover, the EC50 in assay [2] was 415 nM; in assay [3] it was 38 nM; in assay [4], 0.612 µM.

As to `CN1CCCn2cc(nn2)-c2cncc3[nH]c(nc23)-c2n[nH]c3ccc(cc23)-c2cncc(c2)C1` [Compound 45, (1^4Z,2^1Z)-6-Methyl-1 ^1H,2^3H,3^1H-6-aza-2(7,2)-imidazo[4,5-c]pyridina-3(3,5)-indazola-4(3,5)-pyridina-1(4,1)-triazolacyclononaphane], the IC50 in assay [1] came out at 0.001 µM. The figures for the EC50 in assay [2], in assay [3] and in assay [4] were over 10000 nM, 1540 nM and over 10 µM, respectively. In addition, the figures for the inhibition at 10 µM in assay [2] and in assay [4] were 44.1% and 5.9%, respectively.

Regarding `O=C1CCc2cccc(c2)-c2cncc3[nH]c(nc23)-c2n[nH]c3ccc(cc23)-c2cncc(c2)N1` [Compound 3, (Z)-2^3H,3^1H-5-Aza-2(7,2)-imidazo[4,5-c]pyridina-3 (3,5)-indazola-4(3,5)-pyridina-1(1,3)-benzenacyclooctaphan-6-one], in assay [1], the IC50 was found to be 0.001 µM. Moreover, the figures for the EC50 in assay [2], in assay [3] and in assay [4] were 2760 nM, 42 nM and over 10 µM, respectively. Moreover, in assay [4], the inhibition at 10 µM worked out at 43.7%.

With `O=C1CCc2cccc(c2)-c2cncc(c2)NC(=O)c2n[nH]c3ccc(cc23)-c2cncc(c2)CN1` [Compound 97, 2^1H-4,10-diaza-2(5,3)-indazola-1,5(3,5)-dipyridina-6(1,3)-benzenacycloundecaphane-3,9-dione], the IC50 in assay [1] turned out to be 0.01 µM. In addition, the results for the EC50 in assay [2], in assay [3] and in assay [4] were over 10000 nM, 406 nM and over 10 µM, respectively. For the same compound, the inhibition at 10 µM in assay [2] turned out to be 25%; in assay [4], 25.7%.

In the case of `O=C1NC2CCC(CC2)NCc2cncc(c2)-c2ccc3[nH]nc(c3c2)-c2nc3c1cccc3[nH]2` [Compound 64, (6^1s,6^4s,Z)-1^1H,2^1H-5,7-diaza-1 (2,4),2(3,5)-dibenzo[d]imidazola-3(3,5)-pyridina-6(1,4)-cyclohexanacyclooctaphan-8-one], in assay [1], the IC50 amounted to 0.088 µM. Further, the EC50 in assay [2] is over 10000 nM; in assay [3], 10000 nM; in assay [4] it was over 10 µM. Also, the inhibition at 10 µM in assay [2] was 15.8%; in assay [3] (read-out: percent inhibition at 10 μM), 72%; in assay [4], 12.7%.

By IC50 is commonly meant the concentration at which inhibition is half-maximal. In general, EC50 refers to the concentration that produces a half-maximal response. A low value points to an effect from little substance. The term inhibition denotes the drop in the measured response relative to a control, in per cent.
